Test results as given in the kinase profiling compilation of Christmann-Franck et al. (2016).

Key:
Experiment in all cases: KINOMEscan competition binding
Details in all cases: compound 10.0 µM
[1] = target: MYLK4 (human) (UniProt Q86YV6)
[2] = target: CAMK1D (human) (UniProt Q8IU85)
[3] = target: MAPKAPK5 (human) (UniProt Q8IW41)
[4] = target: NEK2 (human) (UniProt P51955)
[5] = target: EPHA6 (human) (UniProt Q9UF33)
[6] = target: FLT1 (human) (UniProt P17948)
[7] = target: ERBB4 (human) (UniProt Q15303)
[8] = target: MAP3K12 (human) (UniProt Q12852)
[9] = target: AKT1 (human) (UniProt P31749)
[10] = target: TEK (human) (UniProt Q02763)
Chain of TEK (human) (Q02763 whole entry, looked up): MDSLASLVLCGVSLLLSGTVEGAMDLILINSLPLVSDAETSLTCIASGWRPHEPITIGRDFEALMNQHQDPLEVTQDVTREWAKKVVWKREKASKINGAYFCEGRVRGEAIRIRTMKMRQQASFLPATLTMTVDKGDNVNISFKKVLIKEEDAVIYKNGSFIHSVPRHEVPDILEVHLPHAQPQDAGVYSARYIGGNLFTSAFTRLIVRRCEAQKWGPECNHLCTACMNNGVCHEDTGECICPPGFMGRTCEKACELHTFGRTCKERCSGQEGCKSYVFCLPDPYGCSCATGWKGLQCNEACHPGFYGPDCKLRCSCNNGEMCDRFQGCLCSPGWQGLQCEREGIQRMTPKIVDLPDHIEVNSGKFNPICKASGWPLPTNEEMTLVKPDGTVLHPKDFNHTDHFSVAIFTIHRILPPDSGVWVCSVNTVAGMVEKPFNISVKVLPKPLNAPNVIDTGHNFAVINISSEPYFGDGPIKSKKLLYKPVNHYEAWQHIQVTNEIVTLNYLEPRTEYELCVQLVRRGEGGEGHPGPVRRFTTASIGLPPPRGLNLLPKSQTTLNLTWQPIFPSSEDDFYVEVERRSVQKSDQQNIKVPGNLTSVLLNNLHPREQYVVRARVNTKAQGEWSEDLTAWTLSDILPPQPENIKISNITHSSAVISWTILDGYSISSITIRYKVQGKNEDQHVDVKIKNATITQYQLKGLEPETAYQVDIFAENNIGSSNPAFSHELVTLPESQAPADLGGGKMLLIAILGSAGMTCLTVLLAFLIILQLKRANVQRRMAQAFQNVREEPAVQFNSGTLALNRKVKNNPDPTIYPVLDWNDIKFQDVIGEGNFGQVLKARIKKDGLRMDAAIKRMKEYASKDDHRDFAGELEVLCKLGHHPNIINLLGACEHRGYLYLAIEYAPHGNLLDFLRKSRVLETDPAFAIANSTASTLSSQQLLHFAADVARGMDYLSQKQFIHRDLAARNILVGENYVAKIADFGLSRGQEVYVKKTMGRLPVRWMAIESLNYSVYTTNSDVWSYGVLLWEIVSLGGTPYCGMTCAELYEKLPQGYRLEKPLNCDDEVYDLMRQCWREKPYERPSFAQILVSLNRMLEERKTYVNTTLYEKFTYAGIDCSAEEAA

[11] = target: RET (human) (UniProt P07949)
[12] = target: MAP4K2 (human) (UniProt Q12851)
[13] = target: LYN (human) (UniProt P07948)
[14] = target: STK10 (human) (UniProt O94804)
[15] = target: RPS6KA6 KD2 (human) (UniProt Q9UK32)
[16] = target: MAPK15 (human) (UniProt Q8TD08)
[17] = target: RPS6KA2 KD1 (human) (UniProt Q15349)
Chain of RPS6KA2 KD1 (human) (Q15349 whole entry, looked up): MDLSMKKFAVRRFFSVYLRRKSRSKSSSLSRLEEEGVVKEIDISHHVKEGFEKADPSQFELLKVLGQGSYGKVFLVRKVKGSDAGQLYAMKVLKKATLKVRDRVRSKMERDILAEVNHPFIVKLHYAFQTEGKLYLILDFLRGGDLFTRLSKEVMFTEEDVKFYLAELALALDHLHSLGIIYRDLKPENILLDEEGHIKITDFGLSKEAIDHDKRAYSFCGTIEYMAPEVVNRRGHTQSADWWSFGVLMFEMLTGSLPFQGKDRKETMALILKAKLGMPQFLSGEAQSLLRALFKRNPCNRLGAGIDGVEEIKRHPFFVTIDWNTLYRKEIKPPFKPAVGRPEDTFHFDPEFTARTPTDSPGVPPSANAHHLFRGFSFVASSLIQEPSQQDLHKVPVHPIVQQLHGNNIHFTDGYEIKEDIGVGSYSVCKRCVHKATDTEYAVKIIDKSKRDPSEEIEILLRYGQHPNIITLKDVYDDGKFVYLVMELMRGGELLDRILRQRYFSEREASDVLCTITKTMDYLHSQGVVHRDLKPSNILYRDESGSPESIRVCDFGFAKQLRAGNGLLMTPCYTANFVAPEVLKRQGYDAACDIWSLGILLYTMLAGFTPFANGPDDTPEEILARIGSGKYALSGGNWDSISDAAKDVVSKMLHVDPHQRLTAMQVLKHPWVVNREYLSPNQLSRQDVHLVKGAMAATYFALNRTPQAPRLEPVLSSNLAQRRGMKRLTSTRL

[18] = target: RPS6KA5 KD2 (human) (UniProt O75582)
[19] = target: NTRK2 (human) (UniProt Q16620)
[20] = target: RIPK4 (human) (UniProt P57078)
[21] = target: CDK11B (human) (UniProt P21127)
[22] = target: PRKCE (human) (UniProt Q02156)
[23] = target: LATS2 (human) (UniProt Q9NRM7)
[24] = target: ACVRL1 (human) (UniProt P37023)
[25] = target: PIM3 (human) (UniProt Q86V86)
[26] = target: CAMK4 (human) (UniProt Q16566)
[27] = tested on: KIT (human), P10721 [D816V]
[28] = target: CAMKK1 (human) (UniProt Q8N5S9)
[29] = target: MAPKAPK2 (human) (UniProt P49137)
[30] = target: DCLK2 (human) (UniProt Q8N568)
[31] = target: WEE1 (human) (UniProt P30291)
[32] = target: NUAK1 (human) (UniProt O60285)
[33] = target: DAPK1 (human) (UniProt P53355)
Chain of DAPK1 (human) (P53355 whole entry, looked up): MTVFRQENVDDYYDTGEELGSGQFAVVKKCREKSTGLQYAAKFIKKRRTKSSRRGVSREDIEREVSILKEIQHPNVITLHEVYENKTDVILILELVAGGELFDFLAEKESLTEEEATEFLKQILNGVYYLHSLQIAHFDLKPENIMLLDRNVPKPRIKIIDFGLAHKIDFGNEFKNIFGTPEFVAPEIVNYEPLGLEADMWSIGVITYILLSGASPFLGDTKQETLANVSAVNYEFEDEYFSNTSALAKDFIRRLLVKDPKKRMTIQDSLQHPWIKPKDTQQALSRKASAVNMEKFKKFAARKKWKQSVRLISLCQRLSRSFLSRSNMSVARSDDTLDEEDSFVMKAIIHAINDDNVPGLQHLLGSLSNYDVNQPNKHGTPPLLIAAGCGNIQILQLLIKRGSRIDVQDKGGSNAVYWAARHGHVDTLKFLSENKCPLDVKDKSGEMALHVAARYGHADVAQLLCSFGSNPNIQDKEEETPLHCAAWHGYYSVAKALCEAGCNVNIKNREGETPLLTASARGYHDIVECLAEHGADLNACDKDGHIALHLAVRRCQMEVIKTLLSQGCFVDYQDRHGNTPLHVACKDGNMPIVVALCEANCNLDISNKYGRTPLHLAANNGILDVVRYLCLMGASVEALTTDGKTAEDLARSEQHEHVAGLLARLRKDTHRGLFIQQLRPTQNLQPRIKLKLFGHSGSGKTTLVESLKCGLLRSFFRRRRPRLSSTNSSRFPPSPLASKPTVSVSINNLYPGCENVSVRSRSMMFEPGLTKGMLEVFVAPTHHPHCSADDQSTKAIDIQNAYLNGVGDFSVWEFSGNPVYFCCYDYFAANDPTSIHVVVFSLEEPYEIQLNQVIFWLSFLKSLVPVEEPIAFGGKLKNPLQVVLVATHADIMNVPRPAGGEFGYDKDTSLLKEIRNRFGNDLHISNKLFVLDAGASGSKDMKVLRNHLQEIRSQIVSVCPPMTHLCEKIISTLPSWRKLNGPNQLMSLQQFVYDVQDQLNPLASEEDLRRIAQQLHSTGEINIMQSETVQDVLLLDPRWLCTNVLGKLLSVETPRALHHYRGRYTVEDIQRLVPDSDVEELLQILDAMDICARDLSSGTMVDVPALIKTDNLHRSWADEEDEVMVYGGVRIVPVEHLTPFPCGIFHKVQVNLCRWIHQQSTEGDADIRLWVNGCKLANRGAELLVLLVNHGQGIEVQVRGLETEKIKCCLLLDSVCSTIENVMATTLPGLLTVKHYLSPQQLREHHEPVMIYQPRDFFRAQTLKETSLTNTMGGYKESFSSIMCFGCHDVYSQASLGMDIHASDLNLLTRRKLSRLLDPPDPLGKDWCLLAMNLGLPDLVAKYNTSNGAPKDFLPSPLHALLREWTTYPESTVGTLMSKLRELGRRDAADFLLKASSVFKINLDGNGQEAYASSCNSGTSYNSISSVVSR

[34] = target: PRKG1 (human) (UniProt Q13976)
Chain of PRKG1 (human) (Q13976 whole entry, looked up): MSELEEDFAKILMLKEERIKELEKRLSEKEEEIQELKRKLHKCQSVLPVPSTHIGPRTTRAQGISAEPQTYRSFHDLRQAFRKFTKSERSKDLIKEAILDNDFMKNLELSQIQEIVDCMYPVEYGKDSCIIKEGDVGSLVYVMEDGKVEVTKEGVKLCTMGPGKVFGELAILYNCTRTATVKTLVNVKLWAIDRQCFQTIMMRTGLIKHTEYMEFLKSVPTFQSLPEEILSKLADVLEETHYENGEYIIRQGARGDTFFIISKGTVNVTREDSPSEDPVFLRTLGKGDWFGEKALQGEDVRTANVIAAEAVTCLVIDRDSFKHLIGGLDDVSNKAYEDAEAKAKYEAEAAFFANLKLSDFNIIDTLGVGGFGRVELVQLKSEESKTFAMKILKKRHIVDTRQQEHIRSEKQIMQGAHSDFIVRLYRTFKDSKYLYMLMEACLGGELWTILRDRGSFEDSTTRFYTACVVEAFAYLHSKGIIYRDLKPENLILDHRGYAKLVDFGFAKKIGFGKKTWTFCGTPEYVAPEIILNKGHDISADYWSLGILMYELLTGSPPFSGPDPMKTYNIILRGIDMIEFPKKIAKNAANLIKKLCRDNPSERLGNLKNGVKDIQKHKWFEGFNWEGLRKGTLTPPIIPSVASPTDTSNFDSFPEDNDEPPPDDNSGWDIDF

[35] = target: PRKG2 (human) (UniProt Q13237)
[36] = target: ANKK1 (human) (UniProt Q8NFD2)
[37] = target: PHKG1 (human) (UniProt Q16816)
[38] = target: ULK3 (human) (UniProt Q6PHR2)
[39] = target: DCLK3 (human) (UniProt Q9C098)
[40] = target: EPHB2 (human) (UniProt P29323)

Chain of EPHA6 (human) (Q9UF33 whole entry, looked up): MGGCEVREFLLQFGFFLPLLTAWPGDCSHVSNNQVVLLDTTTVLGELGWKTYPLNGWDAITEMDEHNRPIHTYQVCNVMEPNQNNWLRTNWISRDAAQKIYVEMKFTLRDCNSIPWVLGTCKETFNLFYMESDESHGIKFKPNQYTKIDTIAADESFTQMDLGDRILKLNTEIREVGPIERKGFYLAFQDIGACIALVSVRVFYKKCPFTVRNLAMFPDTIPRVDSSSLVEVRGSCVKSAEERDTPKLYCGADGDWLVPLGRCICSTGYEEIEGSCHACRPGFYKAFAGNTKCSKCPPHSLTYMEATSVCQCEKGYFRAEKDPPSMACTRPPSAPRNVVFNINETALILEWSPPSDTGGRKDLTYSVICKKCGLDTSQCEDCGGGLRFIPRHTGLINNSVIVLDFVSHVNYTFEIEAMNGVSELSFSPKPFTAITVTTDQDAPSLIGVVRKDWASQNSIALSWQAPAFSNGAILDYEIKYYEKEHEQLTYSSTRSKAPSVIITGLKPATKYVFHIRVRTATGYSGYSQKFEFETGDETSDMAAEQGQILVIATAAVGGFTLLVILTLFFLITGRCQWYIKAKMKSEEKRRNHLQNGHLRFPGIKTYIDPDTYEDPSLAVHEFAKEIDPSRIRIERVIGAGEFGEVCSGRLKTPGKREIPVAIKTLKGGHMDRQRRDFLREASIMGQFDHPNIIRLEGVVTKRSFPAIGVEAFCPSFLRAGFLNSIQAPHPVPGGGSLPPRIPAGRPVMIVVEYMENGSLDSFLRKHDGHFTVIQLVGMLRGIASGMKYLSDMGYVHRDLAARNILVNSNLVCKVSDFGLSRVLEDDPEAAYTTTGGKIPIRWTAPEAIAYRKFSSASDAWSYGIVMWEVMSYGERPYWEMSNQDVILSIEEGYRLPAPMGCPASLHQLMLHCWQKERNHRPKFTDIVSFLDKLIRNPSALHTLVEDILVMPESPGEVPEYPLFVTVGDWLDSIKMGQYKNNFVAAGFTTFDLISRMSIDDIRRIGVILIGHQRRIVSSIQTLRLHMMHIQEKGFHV

Compound	kinase still bound, per cent of control [1] [%]	kinase still bound, per cent of control [2] [%]	kinase still bound, per cent of control [3] [%]	kinase still bound, per cent of control [4] [%]	kinase still bound, per cent of control [5] [%]	kinase still bound, per cent of control [6] [%]	kinase still bound, per cent of control [7] [%]	kinase still bound, per cent of control [8] [%]	kinase still bound, per cent of control [9] [%]	kinase still bound, per cent of control [10] [%]	kinase still bound, per cent of control [11] [%]	kinase still bound, per cent of control [12] [%]	kinase still bound, per cent of control [13] [%]	kinase still bound, per cent of control [14] [%]	kinase still bound, per cent of control [15] [%]	kinase still bound, per cent of control [16] [%]	kinase still bound, per cent of control [17] [%]	kinase still bound, per cent of control [18] [%]	kinase still bound, per cent of control [19] [%]	kinase still bound, per cent of control [20] [%]	also measured
CCN1CCN(Cc2ccc(Nc3ncc4c(n3)N(C)c3ccccc3C(=O)N4C)cc2C(F)(F)F)CC1	99	76	100	100	90	100	95	49	100	85	2.4	17	61	28	16	100	37	100	60	12	kinase still bound, per cent of control [21]: 99%; kinase still bound, per cent of control [22]: 81%; kinase still bound, per cent of control [23]: 91%; kinase still bound, per cent of control [24]: 100%; kinase still bound, per cent of control [25]: 84%; kinase still bound, per cent of control [26]: 100%; kinase still bound, per cent of control [27]: 46%; kinase still bound, per cent of control [28]: 79%; kinase still bound, per cent of control [29]: 100%; kinase still bound, per cent of control [30]: 1.3%; kinase still bound, per cent of control [31]: 91%; kinase still bound, per cent of control [32]: 3%; kinase still bound, per cent of control [33]: 65%; kinase still bound, per cent of control [34]: 100%; kinase still bound, per cent of control [35]: 86%; kinase still bound, per cent of control [36]: 18%; kinase still bound, per cent of control [37]: 100%; kinase still bound, per cent of control [38]: 7.4%; kinase still bound, per cent of control [39]: 68%; kinase still bound, per cent of control [40]: 100%
C=CC(=O)Nc1cccc(Oc2nc(Nc3ccc(N4CCN(C)CC4)cc3OC)ncc2Cl)c1	24	27	100	100	100	100	0.25	100	100	100	100	100	100	100	27	100	16	100	100	100	kinase still bound, per cent of control [21]: 100%; kinase still bound, per cent of control [22]: 100%; kinase still bound, per cent of control [23]: 100%; kinase still bound, per cent of control [24]: 100%; kinase still bound, per cent of control [25]: 100%; kinase still bound, per cent of control [26]: 100%; kinase still bound, per cent of control [27]: 13%; kinase still bound, per cent of control [28]: 18%; kinase still bound, per cent of control [29]: 100%; kinase still bound, per cent of control [30]: 0.45%; kinase still bound, per cent of control [31]: 100%; kinase still bound, per cent of control [32]: 0.65%; kinase still bound, per cent of control [33]: 22%; kinase still bound, per cent of control [34]: 100%; kinase still bound, per cent of control [35]: 100%; kinase still bound, per cent of control [36]: 100%; kinase still bound, per cent of control [37]: 7.7%; kinase still bound, per cent of control [38]: 12%; kinase still bound, per cent of control [39]: 0.35%; kinase still bound, per cent of control [40]: 100%
